According to ChEMBL document CHEMBL3885861, “Open TG-GATES”:

Species on record: Rattus norvegicus
Assay: Open TG-GATES - Regimen: Daily Repeat
Type: toxicity, organism-based, Sprague-Dawley
Parameters: regimen Daily Repeat, gender Male, age 6 weeks
Conditions: in vivo, po, route gavage; for APTT / Bas / Eos / Fbg / Hb / Ht / Lym / MCH / MCHC / Mono / Neu / Plat / RBC / Ret: tissue Blood; for KIDNEY_L / KIDNEY_R / KIDNEY_TOTAL: tissue Kidney; for LIVER: tissue Liver; for ALP / ALT / AST / BUN / CRE / Ca / Cl / DBIL / GLC / IP / K / LDH / Na / PL / RALB / TBIL / TC / TG / TP / gamma-GTP: tissue Plasma
[1] = 0 mg/kg, 72 h, dose level Control, time 3 day
[2] = 0 mg/kg, […], dose level Control, time 7 day
[3] = 0 mg/kg, […], dose level Control, time 14 day
[4] = 0 mg/kg, […], dose level Control, time 28 day
[5] = 3 mg/kg, 72 h, dose level Low, time 3 day
[6] = 3 mg/kg, […], dose level Low, time 7 day
[7] = 3 mg/kg, […], dose level Low, time 14 day
[8] = 3 mg/kg, […], dose level Low, time 28 day

Compound: O=C(CCCN1CCC(O)(c2ccc(Cl)cc2)CC1)c1ccc(F)cc1 [HALOPERIDOL]
- TERMINAL_BW [1]: 226.4 g
- APTT [1]: 16.5 s
- Bas [1]: 0%
- Eos [1]: 0.2%
- Fbg [1]: 223.2 mg/dL
- Hb [1]: 13.8 g/dL
- Ht [1]: 41.1%
- Lym [1]: 84.4%
- MCH [1]: 21.8 pg
- MCHC [1]: 33.6%
- Mono [1]: 4%
- Neu [1]: 11.4%
- Plat [1]: 119.4 x10_4/uL
- RBC [1]: 632.8 x10_4/ul
- Ret [1]: 7.7%
- KIDNEY_L [1]: 1 g
- KIDNEY_R [1]: 1 g
- KIDNEY_TOTAL [1]: 2 g
- LIVER [1]: 11.1 g
- ALP [1]: 915.2 IU/L
- ALT [1]: 38 IU/L
- AST [1]: 59.6 IU/L
- BUN [1]: 19.2 mg/dL
- CRE [1]: 0.6 mg/dL
- Ca [1]: 11.2 mg/dL
- Cl [1]: 105.8 meq/L
- DBIL [1]: 0 mg/dL
- GLC [1]: 191.2 mg/dL
- IP [1]: 8.4 mg/dL
- K [1]: 4.9 meq/L
- LDH [1]: 91.8 IU/L
- Na [1]: 139.2 meq/L
- PL [1]: 166.2 mg/dL
- RALB [1]: 4 g/dL
- TBIL [1]: 0.2 mg/dL
- TC [1]: 88 mg/dL
- TG [1]: 96.6 mg/dL
- TP [1]: 6 g/dL
- gamma-GTP [1]: 1.6 IU/L
- TERMINAL_BW [2]: 261.8 g
- TERMINAL_BW [3]: 307.2 g
- TERMINAL_BW [4]: 396.3 g
- APTT [2]: 16.9 s
- Bas [2]: 0%
- Eos [2]: 0.8%
- Fbg [2]: 216.4 mg/dL
- Hb [2]: 13.9 g/dL
- Ht [2]: 41.8%
- Lym [2]: 80.4%
- MCH [2]: 21.2 pg
- MCHC [2]: 33.3%
- Mono [2]: 4.8%
- Neu [2]: 14%
- Plat [2]: 104.8 x10_4/uL
- RBC [2]: 658 x10_4/ul
- Ret [2]: 5.8%
- APTT [3]: 16.2 s
- Bas [3]: 0%
- Eos [3]: 0.2%
- Fbg [3]: 224.2 mg/dL
- Hb [3]: 14.6 g/dL
- Ht [3]: 43.8%
- Lym [3]: 78.4%
- MCH [3]: 20.4 pg
- MCHC [3]: 33.3%
- Mono [3]: 5.2%
- Neu [3]: 16.2%
- Plat [3]: 107.4 x10_4/uL
- RBC [3]: 716 x10_4/ul
- Ret [3]: 3.7%
- APTT [4]: 16.6 s
- Bas [4]: 0%
- Eos [4]: 0.8%
- Fbg [4]: 235.8 mg/dL
- Hb [4]: 15.1 g/dL
- Ht [4]: 45.3%
- Lym [4]: 80.8%
- MCH [4]: 19.2 pg
- MCHC [4]: 33.4%
- Mono [4]: 5.8%
- Neu [4]: 12.6%
- Plat [4]: 105.5 x10_4/uL
- RBC [4]: 787.6 x10_4/ul
- Ret [4]: 3%
- KIDNEY_L [2]: 1.1 g
- KIDNEY_R [2]: 1.1 g
- KIDNEY_TOTAL [2]: 2.1 g
- KIDNEY_L [3]: 1.2 g
- KIDNEY_R [3]: 1.2 g
- KIDNEY_TOTAL [3]: 2.4 g
- KIDNEY_L [4]: 1.4 g
- KIDNEY_R [4]: 1.4 g
- KIDNEY_TOTAL [4]: 2.8 g
- LIVER [2]: 12.9 g
- LIVER [3]: 14 g
- LIVER [4]: 16.7 g
- ALP [2]: 874.8 IU/L
- ALT [2]: 33.4 IU/L
- AST [2]: 59.4 IU/L
- BUN [2]: 20.2 mg/dL
- CRE [2]: 0.5 mg/dL
- Ca [2]: 11.2 mg/dL
- Cl [2]: 104.8 meq/L
- DBIL [2]: 0.006 mg/dL
- GLC [2]: 196 mg/dL
- IP [2]: 7.4 mg/dL
- K [2]: 4.6 meq/L
- LDH [2]: 93 IU/L
- Na [2]: 138.8 meq/L
- PL [2]: 169.8 mg/dL
- RALB [2]: 3.9 g/dL
- TBIL [2]: 0.3 mg/dL
- TC [2]: 83 mg/dL
- TG [2]: 134.4 mg/dL
- TP [2]: 5.9 g/dL
- gamma-GTP [2]: 1.8 IU/L
- ALP [3]: 784.8 IU/L
- ALT [3]: 32.6 IU/L
- AST [3]: 62.4 IU/L
- BUN [3]: 21.2 mg/dL
- CRE [3]: 0.5 mg/dL
- Ca [3]: 10.7 mg/dL
- Cl [3]: 106.8 meq/L
- DBIL [3]: 0.01 mg/dL
- GLC [3]: 195.4 mg/dL
- IP [3]: 7.4 mg/dL
- K [3]: 4.8 meq/L
- LDH [3]: 93.2 IU/L
- Na [3]: 138.2 meq/L
- PL [3]: 161.2 mg/dL
- RALB [3]: 3.9 g/dL
- TBIL [3]: 0.3 mg/dL
- TC [3]: 76.2 mg/dL
- TG [3]: 149 mg/dL
- TP [3]: 6.2 g/dL
- gamma-GTP [3]: 1.4 IU/L
- ALP [4]: 558 IU/L
- ALT [4]: 30.4 IU/L
- AST [4]: 58.8 IU/L
- BUN [4]: 22.2 mg/dL
- CRE [4]: 0.6 mg/dL
- Ca [4]: 11.1 mg/dL
- Cl [4]: 105 meq/L
- DBIL [4]: 0.052 mg/dL
- GLC [4]: 177.4 mg/dL
- IP [4]: 7.8 mg/dL
- K [4]: 4.6 meq/L
- LDH [4]: 79.4 IU/L
- Na [4]: 140 meq/L
- PL [4]: 160.8 mg/dL
- RALB [4]: 4.1 g/dL
- TBIL [4]: 0.2 mg/dL
- TC [4]: 75.2 mg/dL
- TG [4]: 176.2 mg/dL
- TP [4]: 6.6 g/dL
- gamma-GTP [4]: 1.6 IU/L
- TERMINAL_BW [5]: 219.6 g
- APTT [5]: 16 s
- Bas [5]: 0%
- Eos [5]: 1.4%
- Fbg [5]: 210 mg/dL
- Hb [5]: 14.1 g/dL
- Ht [5]: 42.1%
- Lym [5]: 75.8%
- MCH [5]: 21.4 pg
- MCHC [5]: 33.5%
- Mono [5]: 5%
- Neu [5]: 17.8%
- Plat [5]: 113.5 x10_4/uL
- RBC [5]: 658.8 x10_4/ul
- Ret [5]: 6.6%
- KIDNEY_L [5]: 0.9 g
- KIDNEY_R [5]: 0.9 g
- KIDNEY_TOTAL [5]: 1.9 g
- LIVER [5]: 10.7 g
- ALP [5]: 995 IU/L
- ALT [5]: 39.6 IU/L
- AST [5]: 62 IU/L
- BUN [5]: 21 mg/dL
- CRE [5]: 0.5 mg/dL
- Ca [5]: 11.3 mg/dL
- Cl [5]: 106.2 meq/L
- DBIL [5]: 0 mg/dL
- GLC [5]: 183.6 mg/dL
- IP [5]: 7.9 mg/dL
- K [5]: 4.8 meq/L
- LDH [5]: 76.4 IU/L
- Na [5]: 138.6 meq/L
- PL [5]: 195.4 mg/dL
- RALB [5]: 4 g/dL
- TBIL [5]: 0.2 mg/dL
- TC [5]: 93.6 mg/dL
- TG [5]: 112 mg/dL
- TP [5]: 6 g/dL
- gamma-GTP [5]: 1.4 IU/L
- TERMINAL_BW [6]: 256.9 g
- TERMINAL_BW [7]: 298.2 g
- TERMINAL_BW [8]: 375.7 g
- APTT [6]: 16.5 s
- Bas [6]: 0%
- Eos [6]: 0.2%
- Fbg [6]: 217 mg/dL
- Hb [6]: 14.3 g/dL
- Ht [6]: 42.9%
- Lym [6]: 79.2%
- MCH [6]: 21.1 pg
- MCHC [6]: 33.4%
- Mono [6]: 4.4%
- Neu [6]: 16.2%
- Plat [6]: 100.7 x10_4/uL
- RBC [6]: 678.4 x10_4/ul
- Ret [6]: 5.1%
- APTT [7]: 17.2 s
- Bas [7]: 0%
- Eos [7]: 0.8%
- Fbg [7]: 226.4 mg/dL
- Hb [7]: 15.1 g/dL
- Ht [7]: 45.1%
- Lym [7]: 76.6%
- MCH [7]: 20.9 pg
- MCHC [7]: 33.6%
- Mono [7]: 5.2%
- Neu [7]: 17.4%
- Plat [7]: 108.9 x10_4/uL
- RBC [7]: 723.2 x10_4/ul
- Ret [7]: 4%
- APTT [8]: 17.3 s
- Bas [8]: 0%
- Eos [8]: 0%
- Fbg [8]: 223.4 mg/dL
- Hb [8]: 15.2 g/dL
- Ht [8]: 45.4%
- Lym [8]: 84.4%
- MCH [8]: 19.4 pg
- MCHC [8]: 33.5%
- Mono [8]: 2.4%
- Neu [8]: 13.2%
- Plat [8]: 99.3 x10_4/uL
- RBC [8]: 782.4 x10_4/ul
- Ret [8]: 2.3%
- KIDNEY_L [6]: 1 g
- KIDNEY_R [6]: 1.1 g
- KIDNEY_TOTAL [6]: 2.1 g
- KIDNEY_L [7]: 1.2 g
- KIDNEY_R [7]: 1.2 g
- KIDNEY_TOTAL [7]: 2.4 g
- KIDNEY_L [8]: 1.3 g
- KIDNEY_R [8]: 1.2 g
- KIDNEY_TOTAL [8]: 2.5 g
- LIVER [6]: 12.2 g
- LIVER [7]: 13.3 g
- LIVER [8]: 14.9 g
- ALP [6]: 845.6 IU/L
- ALT [6]: 33.2 IU/L
- AST [6]: 61.4 IU/L
- BUN [6]: 19.2 mg/dL
- CRE [6]: 0.6 mg/dL
- Ca [6]: 11.6 mg/dL
- Cl [6]: 106.8 meq/L
- DBIL [6]: 0 mg/dL
- GLC [6]: 187.8 mg/dL
- IP [6]: 7.7 mg/dL
- K [6]: 4.6 meq/L
- LDH [6]: 93.4 IU/L
- Na [6]: 138.4 meq/L
- PL [6]: 162 mg/dL
- RALB [6]: 4 g/dL
- TBIL [6]: 0.2 mg/dL
- TC [6]: 74.6 mg/dL
- TG [6]: 132 mg/dL
- TP [6]: 6.1 g/dL
- gamma-GTP [6]: 1.4 IU/L
- ALP [7]: 747.6 IU/L
- ALT [7]: 28.2 IU/L
- AST [7]: 63.2 IU/L
- BUN [7]: 20 mg/dL
- CRE [7]: 0.5 mg/dL
- Ca [7]: 11 mg/dL
- Cl [7]: 106.4 meq/L
- DBIL [7]: 0.01 mg/dL
- GLC [7]: 178.4 mg/dL
- IP [7]: 6.8 mg/dL
- K [7]: 4.7 meq/L
- LDH [7]: 89.6 IU/L
- Na [7]: 137.8 meq/L
- PL [7]: 144.8 mg/dL
- RALB [7]: 4 g/dL
- TBIL [7]: 0.3 mg/dL
- TC [7]: 62.2 mg/dL
- TG [7]: 144.2 mg/dL
- TP [7]: 6.3 g/dL
- gamma-GTP [7]: 1.8 IU/L
- ALP [8]: 579.4 IU/L
- ALT [8]: 62.6 IU/L
- AST [8]: 58.8 IU/L
- BUN [8]: 20.8 mg/dL
- CRE [8]: 0.6 mg/dL
- Ca [8]: 10.9 mg/dL
- Cl [8]: 107.6 meq/L
- DBIL [8]: 0.054 mg/dL
- GLC [8]: 178.6 mg/dL
- IP [8]: 6.7 mg/dL
- K [8]: 4.5 meq/L
- LDH [8]: 76.2 IU/L
- Na [8]: 139 meq/L
- PL [8]: 145 mg/dL
- RALB [8]: 4.1 g/dL
- TBIL [8]: 0.2 mg/dL
- TC [8]: 62.8 mg/dL
- TG [8]: 187.4 mg/dL
- TP [8]: 6.6 g/dL
- gamma-GTP [8]: 1.4 IU/L
